The subject of assay [1] is Rs BcsA-B complex. The assay is described as follows: Cellulose synthase sedimentation assay (3H-labeled water-insoluble cellulose, scintillation counting). In kind it is biochemical, Rhodobacter sphaeroides. The following applies: for divalent cation supporting cellulose synthase activity: 20 mM cation, 45 min 37° C. The procedure: (FIG. 4A) Enzyme-coupled cellulose synthesis assays were performed as described in FIG. 3 in the absence or presence of 0.1 mg/ml E. coli BesZ. […] Inset: Radioactive sedimentation assay performed with ND-reconstituted BcsA-B synthesizing cellulose in the absence or presence of BcsZ. […] The obtained product is quantified relative to the polymer formed in the absence of any nucleoside diphosphate.
FIG. 9A-9B (also referred to as Example 1, Supplementary FIG. 3): Cation selectivity and pH optimum of cellulose synthase. (FIG. 9A) Cellulose synthesis reactions were performed in the presence of 20 mM of the indicated cations or in the absence of any additional divalent cations with and without addition of 20 mM EDTA. The activities are shown relative to the activity in the presence of magnesium. […] All activity assays were performed for 45 min at 37° C. with 1 μM PLs-reconstituted. Rs BcsA-B and by quantifying the accumulation of ^3H-labeled water insoluble cellulose as described.
Following incubation at 37° C. for 45 min, the polymerization reaction was terminated by addition of 2% SDS and the water-insoluble polymer was pelleted by centrifugation at 15,000 rpm at room temperature (RT). The obtained pellet was resuspended in 20 μL 50 mM Tris pH 7.5, 0.1 M NaCl and spotted at the origin of a descending Whatman-2MM chromatography paper, which was developed in an aqueous solution of 60% ethanol. For enzymatic degradation, the pellet was resuspended in 20 μL 50 mM sodium acetate pH 4.5 and 100 mM NaCl and was digested with 0.1 mg/ml of endo-β-1,4- or endo-β-1,3 glucanase from Aspergillus niger (TCI) or Trichoderma sp. (Megazyme), respectively. Following paper chromatography, the high molecular weight polymer retained at the origin was quantified by scintillation counting.
Following synthesis, the reactions were treated as described above.

The test system of assay [2] is Rs BcsA-B complex. Put plainly: Enzyme-coupled (PK/LDH) cellulose synthase activity assay, UDP formation followed via NADH oxidation at 340 nm. In kind it is biochemical, Rhodobacter sphaeroides. The following applies: for residual activity with alternative substrate as only carbohydrate source, relative to UDP-Glc: 5 mM substrate, 0.5 μM PL-reconstituted BcsA-B. The procedure:
FIG. 3A-3D (also referred to as Example 1, FIG. 3): Kinetic analysis of cellulose synthesis and stimulation by cyclic-di-GMP. (FIG. 3A) Cellulose synthesis reactions were performed in the presence of IU PK and LDH, 0.5 mM NADH and 1 mM PEP. The LDH-catalyzed oxidation of NADH to NAD^+ was monitored spectrophotometrically at 340 nm. […] Addition of 1 mM UDP to the reaction rapidly depletes NADH by circumventing cellulose synthesis. […] The data were fit to monophasic Michaelis-Menten kinetics. […] All reactions were performed at room temperature with 0.5 μM ND-reconstituted BcsA-B in a total volume of 20 μl.
Thus, the second product of the cellulose synthase reaction is UDP. […] Because PK recognizes UDP but not UMP as substrate (36), the successful coupling of cellulose synthesis with its activity implies the formation of UDP. To ensure that all BcsA-B complexes are accessible to the substrates and can contribute to the observed reaction, the complex was reconstituted into lipid nanodiscs (ND) (FIG. S4), which are edge-stabilized, planar lipid bilayer discs approximately 10 nm in diameter (37). At this size, each ND most likely contains a single BcsA-B complex (38).
Pyruvate kinase (PK)—and lactate dehydrogenase (LDH)-coupled activity assays were performed by incubating 0.5 μM cellulose synthase with 1 U PK and 1 U LDH, 0.5 mM NADH, 1 mM phosphoenolpyruvate, and 30 mM MgCl2 in 20 mM Tris pH 7.5, 100 mM NaCl, 5 mM cellobiose and 10% glycerol in a total volume of 20 μL. The cellulose synthase complex was added last to the reaction mix after a pre-incubation for 10 min at RT. The decrease in absorbance at 340 nm was measured in a SpectraMax plate reader in Corning 384 well clear flat bottom assay plates. Control reactions in the absence of cellulose synthase were performed to determine the background NADH oxidation. Data were plotted and analyzed in Origin (5) and fitted to monophasic Michaelis-Menten kinetics as described (3).

Where [3] appears, read: 0.1 mg/ml E. coli BcsZ, ND-reconstituted BcsA-B.

For `[Mg+2]` [Mg2+], the “divalent cation supporting cellulose synthase activity” value in assay [1] (1 μM PL-reconstituted BcsA-B) is recorded as “approximately equal activity levels”.

As for `[Mn+2]` [Mn2+], the “divalent cation supporting cellulose synthase activity” value in assay [1] (1 μM PL-reconstituted BcsA-B) is “approximately equal activity levels”. Consider `O=c1ccn([C@@H]2O[C@H](COP(=O)(O)OP(=O)(O)O)[C@@H](O)[C@H]2O)c(=O)[nH]1` [UDP, uridine diphosphate], for which, in assay [1] (0.7 mM UDP, 0.5 mM UDP-Glc, 1 μM PL-reconstituted BcsA-B, 60 min 37° C.), the “product formed relative to absence of nucleoside diphosphate” value is 50%. Also, the “mode of inhibition of cellulose synthase” value in assay [1] (0.7 mM UDP, increasing UDP-Glc) was “competitive”. In the case of `CC(=O)N[C@H]1[C@@H](OP(=O)(O)OP(=O)(O)OC[C@H]2O[C@@H](n3ccc(=O)[nH]c3=O)[C@H](O)[C@@H]2O)O[C@H](CO)[C@@H](O)[C@@H]1O` [UDP-N-acetyl glucosamine], the “residual activity with alternative substrate as only carbohydrate source, relative to UDP-Glc” value (from here on “residual activity … relative to UDP-Glc”) in assay [2] is “about 20%”. On to `O=c1ccn([C@@H]2O[C@H](COP(=O)(O)OP(=O)(O)O[C@H]3OC[C@H](O)[C@H](O)[C@H]3O)[C@@H](O)[C@H]2O)c(=O)[nH]1` [UDP-arabinose], for which the “residual activity … relative to UDP-Glc” value in assay [2] is on record as “about 20%”. For `O=C(O)[C@H]1O[C@H](OP(=O)(O)OP(=O)(O)OC[C@H]2O[C@@H](n3ccc(=O)[nH]c3=O)[C@H](O)[C@@H]2O)[C@H](O)[C@@H](O)[C@@H]1O` [UDP-glucuronic acid], the “residual activity … relative to UDP-Glc” value in assay [2] is listed as “about 20%”. The same measure, in the same setting: then `O=c1ccn([C@@H]2O[C@H](COP(=O)(O)OP(=O)(O)O[C@H]3OC[C@@H](O)[C@H](O)[C@H]3O)[C@@H](O)[C@H]2O)c(=O)[nH]1` [UDP-xylose], with “about 20%”.

B1: BcsZ: E. coli periplasmic cellulase encoded in cellulose synthase operons (protein, UniProt P37651 22-368, looked up)
Endoglucanase: ACTWPAWEQFKKDYISQEGRVIDPSDARKITTSEGQSYGMFSALAANDRAAFDNILDWTQNNLAQGSLKERLPAWLWGKKENSKWEVLDSNSASDGDVWMAWSLLEAGRLWKEQRYTDIGSALLKRIAREEVVTVPGLGSMLLPGKVGFAEDNSWRFNPSYLPPTLAQYFTRFGAPWTTLRETNQRLLLETAPKGFSPDWVRYEKDKGWQLKAEKTLISSYDAIRVYMWVGMMPDSDPQKARMLNRFKPMATFTEKNGYPPEKVDVATGKAQGKGPVGFSAAMLPFLQNRDAQAVQRQRVADNFPGSDAYYNYVLTLFGQGWDQHRFRFSTKGELLPDWGQECANSH
Turning to B1, the “effect on BcsA-B's apparent reaction rate” value in assay [2] (setting [3]) is “does not change”. The “effect on accumulation of HMW cellulose” value in assay [1] (setting [3]) is on record as “prevents the accumulation of HMW cellulose”.

The values above are taken from patent publication US9890407B2, “Method for synthesizing cellulose in vitro” (University of Virginia Patent Foundation, priority 2013, dated 2018).
